Reference: ChEMBL document CHEMBL2176890, “2-(3-fluoro-4-methylsulfonylaminophenyl)propanamides as potent transient receptor potential vanilloid 1 (TRPV1) antagonists: structure-activity relationships of 2-amino derivatives in the N-(6-trifluoromethylpyridin-3-ylmethyl) C-region” (J Med Chem, 2012)
Calls of active or inactive are those of the source. The rule behind the calls is not given here.

Legend:
[1] = target: T1, Transient receptor potential cation channel subfamily V member 1 (Homo sapiens, UniProt Q8NER1); experiment: Antagonist activity at human TRPV1 expressed in CHOK1 cells assessed as inhibition of capsaicin-induced activity by FLIPR assay; format: functional, cell-based, CHO-K1
[2] = target: T1, Transient receptor potential cation channel subfamily V member 1; experiment: Antagonist activity at human TRPV1 expressed in CHOK1 cells assessed as inhibition of pH-induced activity by FLIPR assay; format: functional, cell-based, CHO-K1
Mus musculus [3] = experiment: Inhibition of capsaicin-induced hypothermia in NMRI mouse at 0.3 mg/kg, po administered 15 mins prior challenge; format: functional, organism-based; set-up: dose 0.3 mg/kg
Mus musculus [4] = experiment: Acute toxicity in TRPV1 knockout mouse assessed as hyperthermia at 1 mg/kg, po at 45 to 60 mins; conditions: in vivo
Mus musculus [5] = experiment: Acute toxicity in C57BL/6J mouse assessed as hyperthermia at 1 mg/kg, po at 45 to 60 mins; conditions: in vivo
[6] = target: T1, Transient receptor potential cation channel subfamily V member 1; experiment: Antagonist activity at human TRPV1 expressed in CHOK1 cells assessed as inhibition of heat-induced activity after 5 mins by FLIPR assay; format: functional, cell-based, CHO-K1
Rattus norvegicus [7] = experiment: Analgesic activity in CCI-induced Sprague-Dawley rat neuropathic pain model assessed as reduction in paw withdrawal measured 45 mins after po administration; format: functional
[8] = target: T1, Transient receptor potential cation channel subfamily V member 1; experiment: Antagonist activity at human TRPV1 expressed in CHOK1 cells assessed as inhibition of N-acetyldopamine-induced activity after 5 mins by FLIPR assay; format: functional, cell-based, CHO-K1
Rattus norvegicus [9] = experiment: Toxicity in po dosed CCI-induced Sprague-Dawley rat neuropathic pain model assessed as decreased locomotion; format: organism-based; conditions: in vivo
Rattus norvegicus [10] = experiment: Toxicity in po dosed CCI-induced Sprague-Dawley rat neuropathic pain model assessed as sedation; format: organism-based; conditions: in vivo
Rattus norvegicus [11] = experiment: Analgesic activity in CCI-induced Sprague-Dawley rat neuropathic pain model assessed as reduction in paw withdrawal at 3.16 mg/kg, po after 45 mins; format: functional
Rattus norvegicus [12] = experiment: Analgesic activity in CCI-induced Sprague-Dawley rat neuropathic pain model assessed as reduction in paw withdrawal measured 30 mins after po administration; format: functional, organism-based

T1 sequence (Q8NER1 whole entry): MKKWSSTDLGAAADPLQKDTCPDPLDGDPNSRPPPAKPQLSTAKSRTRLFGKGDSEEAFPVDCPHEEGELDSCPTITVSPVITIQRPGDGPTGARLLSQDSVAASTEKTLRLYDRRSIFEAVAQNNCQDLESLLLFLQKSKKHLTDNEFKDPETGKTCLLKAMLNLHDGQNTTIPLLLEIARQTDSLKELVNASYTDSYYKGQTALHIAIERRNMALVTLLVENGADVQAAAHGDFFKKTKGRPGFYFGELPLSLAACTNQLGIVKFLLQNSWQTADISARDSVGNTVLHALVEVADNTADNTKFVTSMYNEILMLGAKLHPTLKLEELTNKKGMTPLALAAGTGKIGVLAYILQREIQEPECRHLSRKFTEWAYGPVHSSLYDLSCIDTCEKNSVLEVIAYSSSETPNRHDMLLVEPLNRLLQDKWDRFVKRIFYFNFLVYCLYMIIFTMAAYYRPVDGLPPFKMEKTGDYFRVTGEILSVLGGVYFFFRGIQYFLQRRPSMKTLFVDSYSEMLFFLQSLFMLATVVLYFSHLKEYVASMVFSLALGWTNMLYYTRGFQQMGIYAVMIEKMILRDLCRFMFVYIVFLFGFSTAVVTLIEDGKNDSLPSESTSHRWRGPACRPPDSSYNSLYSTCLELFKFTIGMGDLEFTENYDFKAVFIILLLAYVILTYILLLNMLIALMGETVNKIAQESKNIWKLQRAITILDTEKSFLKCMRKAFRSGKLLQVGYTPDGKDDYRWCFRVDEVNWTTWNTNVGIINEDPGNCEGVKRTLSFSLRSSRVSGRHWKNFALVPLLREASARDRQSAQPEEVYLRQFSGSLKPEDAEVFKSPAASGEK

Row | Structure (SMILES) | Ki ([1]; read-out: Ki) [nM] | IC50 ([2]; read-out: IC50) [nM] | further results
1 | CC(C(=O)NCc1ccc(C(F)(F)F)nc1NCc1cccnc1)c1ccc(NS(C)(=O)=O)c(F)c1 (racemic) | – | – | Ki ([1]; cho-k1): Not Active; IC50 ([2]; cho-k1): Not Active
2 | C[C@H](C(=O)NCc1ccc(C(F)(F)F)nc1N1CCC[C@H]1C(=O)OC(C)(C)C)c1ccc(NS(C)(=O)=O)c(F)c1 | 2.6 | 209 | –
3 | CC(C(=O)NCc1ccc(C(F)(F)F)nc1)c1ccc(NS(C)(=O)=O)c(F)c1 (racemic) | – | – | IC50 ([2]; cho-k1): Not Active
4 | CC1CCN(c2nc(C(F)(F)F)ccc2CNC(=O)[C@H](C)c2ccc(NS(C)(=O)=O)c(F)c2)CC1 | 9.8 | 254 | –
5 | CC1CCCN1c1nc(C(F)(F)F)ccc1CNC(=O)[C@@H](C)c1ccc(NS(C)(=O)=O)c(F)c1 (stereo not given in full) | 0.3 | – | –
6 | Cc1ccc(CC2CCN(c3nc(C(F)(F)F)ccc3CNC(=O)C(C)c3ccc(NS(C)(=O)=O)c(F)c3)CC2)cc1 (racemic) | 0.2 | 17 | –
7 | CC(C(=O)NCc1ccc(C(F)(F)F)nc1N1CCC(O)CC1)c1ccc(NS(C)(=O)=O)c(F)c1 (racemic) | – | – | Ki ([1]; cho-k1): Not Active; IC50 ([2]; cho-k1): Not Active
8 | CC1CCC(Nc2nc(C(F)(F)F)ccc2CNC(=O)C(C)c2ccc(NS(C)(=O)=O)c(F)c2)CC1 (racemic) | 27.2 | 1130 | –
9 | C[C@H](C(=O)NCc1ccc(C(F)(F)F)nc1N1CC[C@H](NC(=O)OC(C)(C)C)C1)c1ccc(NS(C)(=O)=O)c(F)c1 | 7.1 | 737 | –
10 | C[C@H](C(=O)NCc1ccc(C(F)(F)F)nc1N1CCC[C@H]1C(=O)N(C)C)c1ccc(NS(C)(=O)=O)c(F)c1 | – | – | IC50 ([2]; cho-k1): Not Active
11 | O=C(/C=C/c1ccc(C(F)(F)F)nc1N1CCCCC1)Nc1ccc2cccnc2c1 | 4.4 | – | IC50 ([2]; cho-k1): Not Active
12 | CC1CCN(c2nc(C(F)(F)F)ccc2CNC(=O)[C@@H](C)c2ccc(NS(C)(=O)=O)c(F)c2)CC1 | 0.2 | 6.3 | Activity (Mus musculus [3]): Active; Activity (Mus musculus [4]): Non-toxic; Activity (Mus musculus [5]): Toxic; IC50 [6]: 0.8 nM; Activity (Rattus norvegicus [7]): Dose-dependent effect; ED50 (Rattus norvegicus [7]): 0.9 mg/kg; Ki [8]: 0.01 nM; Activity (Rattus norvegicus [9]): Non-toxic; Activity (Rattus norvegicus [10]): Non-toxic; Emax at 3.16 mg/kg (Rattus norvegicus [11]): 60%
13 | C[C@H](C(=O)NCc1ccc(C(C)(C)C)cc1)c1ccc(NS(C)(=O)=O)c(F)c1 | 20 | 1210 | IC50 [6]: 174 nM; Activity (Rattus norvegicus [12]): Active; Ki [8]: 6.6 nM; Activity (Rattus norvegicus [9]): Non-toxic; Activity (Rattus norvegicus [10]): Non-toxic
14 | C[C@H](C(=O)NCc1ccc(C(F)(F)F)nc1N1CCC[C@H]1CO)c1ccc(NS(C)(=O)=O)c(F)c1 | – | – | IC50 ([2]; cho-k1): Not Active
15 | CC1CCN(c2nc(C(F)(F)F)ccc2CNC(=O)C(C)c2ccc(NS(C)(=O)=O)c(F)c2)CC1 (racemic) | – | 8.4 | –
16 | CC(C)(C)c1ccc(CNC(=S)NCc2ccc(NS(C)(=O)=O)c(F)c2)cc1 | 26 | – | IC50 ([2]; cho-k1): Not Active
17 | CC(C(=O)NCc1ccc(C(F)(F)F)nc1N1CCC(Cc2ccc(F)c(F)c2)CC1)c1ccc(NS(C)(=O)=O)c(F)c1 (racemic) | 0.2 | 30 | –
18 | CC(C(=O)NCc1ccc(C(F)(F)F)nc1N1CCN(c2ccc(C(F)(F)F)cc2)CC1)c1ccc(NS(C)(=O)=O)c(F)c1 (racemic) | 2.3 | 117 | –
19 | O=C(/C=C/c1ccc(C(F)(F)F)nc1N1CCOCC1)Nc1ccc2cccnc2c1 | 1.2 | 116 | –

More lines, main results first:

Row | Ki ([1]; read-out: Ki) [nM] | IC50 ([2]; read-out: IC50) [nM] | Structure (SMILES) | further results
20 | 0.4 | 24 | CC(C(=O)NCc1ccc(C(F)(F)F)nc1N1CCC(Cc2cc(F)cc(F)c2)CC1)c1ccc(NS(C)(=O)=O)c(F)c1 (racemic) | –
21 | 1.4 | 50 | C[C@H](C(=O)NCc1ccc(C(F)(F)F)nc1N1CC[C@@H](OCc2ccccc2)C1)c1ccc(NS(C)(=O)=O)c(F)c1 | –
22 | 0.43 | – | CC(C(=O)NCc1ccc(C(F)(F)F)nc1N1CCCCC1)c1ccc(NS(C)(=O)=O)c(F)c1 (racemic) | –
23 | 11 | 757 | C[C@H](C(=O)NCc1ccc(C(F)(F)F)nc1N1CC[C@@H](NC(=O)OC(C)(C)C)C1)c1ccc(NS(C)(=O)=O)c(F)c1 | –
24 | – | 117 | CC(C(=O)NCc1ccc(C(F)(F)F)nc1N1CCN(c2ncccc2Cl)CC1)c1ccc(NS(C)(=O)=O)c(F)c1 (racemic) | –
25 | 3.9 | 990 | CC(C(=O)NCc1ccc(C(F)(F)F)nc1N1CCC(C(=O)c2ccc(F)cc2)CC1)c1ccc(NS(C)(=O)=O)c(F)c1 (racemic) | –
26 | 103 | – | C[C@H](C(=O)NCc1ccc(C(F)(F)F)nc1N1CC[C@H](N(C)C)C1)c1ccc(NS(C)(=O)=O)c(F)c1 | –
27 | 101 | – | C[C@H](C(=O)NCc1ccc(C(F)(F)F)nc1N1CC[C@@H](N(C)C)C1)c1ccc(NS(C)(=O)=O)c(F)c1 | –
28 | 0.8 | 25.1 | CC(C(=O)NCc1ccc(C(F)(F)F)nc1N1CCCCCC1)c1ccc(NS(C)(=O)=O)c(F)c1 (racemic) | –
29 | – | 46.7 | C[C@H](C(=O)NCc1ccc(C(F)(F)F)nc1N1CCCCC1)c1ccc(NS(C)(=O)=O)c(F)c1 | –
30 | 2.1 | 426 | CC(C(=O)NCc1ccc(C(F)(F)F)nc1N1CCC(CN(C)C)CC1)c1ccc(NS(C)(=O)=O)c(F)c1 (racemic) | –
